Results as given in the supplement of paper PMC4932681.

Experiments:
Assay in all cases: viability inhibition at highest dose (% inhibition); higher = more growth inhibition
BT-474 Tam1 = conditions: 4-OH-tamoxifen in medium 1 µM; 72 h
Method: (§1)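 Percent inhibition of viability (CellTiter-Glo, 72 h) at the highest tested concentration (D5), normalised to DMSO (0%) and 100 µM benzethonium chloride (100%). Resistant lines and the 'in 1µM tamoxifen' arms were tested in 1 µM 4-OH-tamoxifen.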

BT-474 Tam2 = conditions: 4-OH-tamoxifen in medium 1 µM; 72 h
Method: as §1

BT-474 = conditions: 72 h
Method: as §1

MCF-7 Tam1 = conditions: 4-OH-tamoxifen in medium 1 µM; 72 h
Method: as §1

MCF-7 = conditions: 72 h
Method: as §1

T-47D Tam1 = conditions: 4-OH-tamoxifen in medium 1 µM; 72 h
Method: as §1

T-47D Tam2 = conditions: 4-OH-tamoxifen in medium 1 µM; 72 h
Method: as §1

T-47D = conditions: 72 h
Method: as §1

ZR-75-1 Tam1 = conditions: 4-OH-tamoxifen in medium 1 µM; 72 h
Method: as §1

ZR-75-1 Tam2 = conditions: 4-OH-tamoxifen in medium 1 µM; 72 h
Method: as §1

ZR-75-1 = conditions: 72 h
Method: as §1

SMILES | viability inhibition at highest dose (BT-474 Tam1) | viability inhibition at highest dose (BT-474 Tam2) | viability inhibition at highest dose (BT-474; 4-OH-tamoxifen in medium 0 µM) | viability inhibition at highest dose (BT-474; 4-OH-tamoxifen in medium 1 µM) | viability inhibition at highest dose (MCF-7 Tam1) | viability inhibition at highest dose (MCF-7; 4-OH-tamoxifen in medium 0 µM) | viability inhibition at highest dose (MCF-7; 4-OH-tamoxifen in medium 1 µM) | viability inhibition at highest dose (T-47D Tam1) | viability inhibition at highest dose (T-47D Tam2) | viability inhibition at highest dose (T-47D; 4-OH-tamoxifen in medium 0 µM) | viability inhibition at highest dose (T-47D; 4-OH-tamoxifen in medium 1 µM) | viability inhibition at highest dose (ZR-75-1 Tam1) | viability inhibition at highest dose (ZR-75-1 Tam2) | viability inhibition at highest dose (ZR-75-1; 4-OH-tamoxifen in medium 0 µM) | viability inhibition at highest dose (ZR-75-1; 4-OH-tamoxifen in medium 1 µM)
CCCCC/C=C/C=C1/C(=O)C=C[C@@H]1C/C=C\CCCC(=O)O [15D-PGJ2] (drug 800 nM) | -6.35 | -6.87 | -7.22 | -14.5 | -5.28 | -3.98 | -2.34 | 0.0444 | 19.6 | -18.6 | -6.02 | -1.15 | -2.77 | -12.7 | 5.41
Cc1sc2c(c1C)C(c1ccc(Cl)cc1)=N[C@@H](CC(=O)OC(C)(C)C)c1nnc(C)n1-2 [(+)JQ1] (drug 10000 nM) | 75 | 76.6 | 31.3 | 68.4 | 15.2 | 52.8 | 59.6 | 46.9 | 29.1 | 34.3 | 16.5 | 43.3 | 37.8 | 29.8 | 30.9
COc1ccc(S(=O)(=O)Nc2cccnc2Nc2ccc(O)cc2)cc1 [ABT-751] (drug 10000 nM) | 64.7 | 54.2 | 42.6 | 73.1 | 1.63 | 50.3 | 44.6 | 58.6 | 38.3 | -0.891 | 2.69 | 4.33 | 18.6 | 36.3 | 14.9
O=C(Nc1c[nH]nc1-c1nc2ccc(CN3CCOCC3)cc2[nH]1)NC1CC1 [AT9283] (drug 1000 nM) | 1.94 | 11.4 | -19.7 | -13.2 | -5.75 | -25.8 | -11 | -7.78 | 2.08 | -42.6 | -23.3 | -22.4 | -19.2 | -44.4 | -22.6
COc1cc(OC2CCN(C)CC2)ccc1Nc1ncc2c(n1)n(C1CCCC1)c(=O)n2C [AZ 3146] (drug 10000 nM) | 74.5 | 25.9 | 9.21 | 77.2 | 11.7 | 24.5 | 15 | 20.1 | 26.5 | 27.1 | 14.1 | 19.6 | 24 | 20.8 | 22.9
Cc1cc(Nc2nc(N[C@@H](C)c3ncc(F)cn3)ncc2Cl)[nH]n1 [AZD1480] (drug 1000 nM) | 3.08 | -2.54 | -2.51 | 8 | 1.6 | 13.1 | 6.46 | 2.99 | 3.94 | -12.1 | -7.24 | -2.1 | -3.72 | -6.08 | -11.4
COc1cc(CCc2cc(NC(=O)c3ccc(N4CC(C)NC(C)C4)cc3)n[nH]2)cc(OC)c1 (stereo not given) [AZD4547] (drug 1000 nM) | 8.22 | -5.95 | -7.84 | 5.15 | -1.84 | -4.05 | 2.4 | -9.97 | -1.01 | -22.2 | 8.39 | 1.86 | -8.6 | -14.5 | -5.83
NC(=O)Nc1cc(-c2cccc(F)c2)sc1C(=O)N[C@H]1CCCNC1 [AZD7762] (drug 1000 nM) | -13.6 | -14.7 | -6.57 | -6.16 | 2.31 | 35.5 | 5.25 | 18.2 | 29.3 | -14.8 | 13.8 | -10.3 | -5.84 | 10.5 | -0.00544
COc1ccc(-c2ccc3c(N4CCOC[C@@H]4C)nc(N4CCOC[C@@H]4C)nc3n2)cc1CO [AZD8055] (drug 10000 nM) | 80.1 | 56.1 | 43.2 | 77.2 | 34.5 | 72.4 | 56.5 | 54.4 | 58.3 | 61 | 55.9 | 57.3 | 61 | 60 | 50.2
C[C@]12CC[C@H](O)CC1=CC[C@@H]1[C@@H]2CC[C@]2(C)C(c3cccnc3)=CC[C@@H]12 [Abiraterone (CB-7598)] (drug 5000 nM) | 6.31 | -1 | -6.23 | -14.7 | -8.38 | -13.6 | -10.3 | -5.53 | -1.44 | -18.4 | -16.6 | -0.517 | -3.39 | -6.86 | -7.24
CN(C)C/C=C/C(=O)Nc1cc2c(Nc3ccc(F)c(Cl)c3)ncnc2cc1O[C@H]1CCOC1 [Afatinib (BIBW2992, Tovok)] (drug 1000 nM) | 95.9 | 95.5 | 82.2 | 93.8 | -0.193 | -11.5 | 19 | 19.8 | 16.6 | 0.755 | -3.23 | 0.501 | -3.77 | -5.16 | 1.48
COc1cc(Nc2ncc3c(n2)-c2ccc(Cl)cc2C(c2c(F)cccc2OC)=NC3)ccc1C(=O)O [Alisertib (MLN8237)] (drug 10000 nM) | 13.6 | -5.31 | 11.6 | 34.7 | 16.2 | 17.2 | 7.64 | 38.9 | 41 | 27.3 | 28.5 | -1.42 | 4.01 | -2.57 | 9.24
Oc1ncnc2[nH]ncc12 [Allopurinol] (drug 10000 nM) | -0.277 | 8.84 | 2.31 | 19.8 | 3.95 | -21.9 | -2.88 | 5 | 4.5 | 0.987 | 3.06 | 8.36 | -2.7 | -2.05 | 9.69
CN(C)c1nc(N(C)C)nc(N(C)C)n1 [Altretamine] (drug 10000 nM) | 4.18 | 0.399 | -14.8 | -18.3 | -9.06 | -20.5 | 10.6 | 52.4 | 5.82 | -20.9 | 18.5 | 0.782 | -11.8 | -19.3 | -9.44
